Source: ChEMBL document CHEMBL1127607, “Genetically evolved receptor models: a computational approach to construction of receptor models” (J Med Chem, 1994)

Organism: Homo sapiens
Experiment: Potency based on concentration of sweetener which matches the sweetness recognition threshold of sucrose (~2%)
Type: functional, organism-based
`CC12CCC(C1)C(C)(C)C2OC(=O)C(NC(=O)C(N)CC(=O)O)c1cccs1` (configuration not stated) gave a Log potency of 3.38.
In the case of `N#Cc1ccc(N/C(=N/CC(=O)O)NS(=O)(=O)c2ccccc2)cc1`, the Log potency is reported as 4.48.
In the case of `CC(NC(=O)C(N)CC(=O)O)C(=O)NC1C(C)(C)CCC1(C)C` (configuration not stated), the Log potency is reported as 2.9.
Work on `C[C@@H](N/C(=N\CC(=O)O)Nc1ccc(C#N)cc1)c1ccccc1` yielded a Log potency of 4.45.
Molecule `N#Cc1ccc(N/C(S)=N/CCC(=O)O)cc1` has a Log potency of 3.32.
In the case of `O=C(O)C/N=C(\NCc1ccccc1)Nc1cc(Cl)cc(Cl)c1`, the Log potency is reported as 4.9.
With `COC(=O)C(Cc1ccccc1)NC(=O)C(CC(=O)O)/N=C(\S)Nc1ccc(C#N)cc1` (configuration not stated) the Log potency was 4.7.
`C[C@@H](N/C(=N\CC(=O)O)Nc1cc(Cl)cc(Cl)c1)c1ccccc1` gave a Log potency of 5.08.
`N#CN/C(=N\CC(=O)O)Nc1ccc(C#N)cc1` gave a Log potency of 3.85.
For `O=C(O)CCNC(=O)Nc1ccc([N+](=O)[O-])cc1`, the Log potency was 2.85.
In the case of `N#Cc1ccc(N/C(=N/CC(=O)O)NC2CCCCCCC2)cc1`, the Log potency is reported as 5.23.
In the case of `N#Cc1ccc(NC(=O)NC(CC(=O)O)c2ccccc2)cc1` (configuration not stated), the Log potency is reported as 4.
In the case of `CC12CCC(C1)C(C)(C)C2OC(=O)C(NC(=O)C(N)CC(=O)O)c1ccco1` (configuration not stated), the Log potency is reported as 4.22.
Work on `N#Cc1ccc(NC(=O)NCCC(=O)O)cc1` yielded a Log potency of 2.65.
`N#CN/C(=N\CCC(=O)O)Nc1ccc(C#N)cc1` was tested, and the Log potency was 2.95.
`COC(=O)[C@H](Cc1ccccc1)NC(=O)[C@@H](N)CC(=O)O` was tested, and the Log potency was 2.26.
Molecule `CC(NC(=O)C(N)CC(=O)O)C(=O)NC1CCCC1` (configuration not stated) has a Log potency of 1.7.
Molecule `COC(=O)C(Cc1ccccc1)NC(=O)C(CC(=O)O)NC(=O)Nc1ccc(C#N)cc1` (configuration not stated) has a Log potency of 4.
`N#Cc1ccc(NC(=O)NC(CC(=O)O)c2ccncc2)cc1` (configuration not stated) was tested, and the Log potency was 3.3.
For `CC(NC(=O)C(N)CC(=O)O)C(=O)NC1C(C)(C)SC1(C)C` (configuration not stated), the Log potency was 3.3.
`N#Cc1ccc(NC(=O)NC(CC(=O)O)c2cccnc2)cc1` (configuration not stated) gave a Log potency of 4.3.
With `N#Cc1ccc(N/C(=N/CC(=O)O)NCc2ccccc2)cc1` the Log potency was 4.48.
